Laboratory results as given in US9012407B2, “Therapies which act on neuropeptide S receptors” (The Regents of the University of California, priority 2004, dated 2015).

Columns and labels:
C57Bl/6 mice [1] = test: Light-dark box; type: in vivo
Protocol: (§1) Male C57Bl/6 mice (National Cancer Institute, Bethesda, MD), age 10-14 weeks, were group-housed (4 animals per cage) under controlled conditions (temperature 21±2° C.; relative humidity 50-60%; 12-hour light-dark cycle, lights on 6:00 AM) with free access to food and water. Prior to drug injections, mice were briefly anesthetized with halothane. NPS was dissolved in phosphate-buffered saline (PBS, pH 7.4) and injected i.c.v. (total volume: 2 μl) as described before (Laursen and Belknap, 1986). Mice were allowed to recover for 5 min and then placed in the observation apparatus.
(§2) Locomotion was monitored in rectangular plexiglass boxes (60×40×50 cm). Horizontal activity was measured over 60 min by 18×12 infrared sensors placed 2 cm above the floor. A second row of sensors at 8 cm above the floor was used to record rearing events. The imaginary central zone was defined as a 30×20 cm rectangle in the middle of each observation area. Data were collected using MatLab (Mathworks, Natick, Mass.). Experimental procedures for open field, elevated plus-maze and light-dark box were described previously (Köster et al., 1999). Marble burying was measured in mice placed individually in polypropylene cages (30×18×12 cm) containing 18 glass marbles (1.5 cm diameter) evenly spaced on 5 cm deep rodent bedding (bed-o'cob, The Andersons Inc., Maumee, Ohio) (Njung'e and Handley, 1991). No food or water was present during the observation period. Cages were covered with a metal grid and the number of marbles covered at least two-thirds was counted after 30 min.

NPSR C-alt = biological target: T1, NPSR C-alt (Homo sapiens, UniProt Q6W5P4); test: CRE-luciferase reporter gene assay, HEK 293 cells, NPSR C-alt; type: cell-based; conditions: transiently transfected HEK cells; read-out: EC50, luciferase reporter induction
T1 construct: The C-terminal splice variant of NPSR (NPSR C-alt, GPRA isoform B); expressed in transfected cells; host or cells: HEK 293 cells carrying the CRE-luciferase reporter, transient transfection, pcDNA3.1 hygro
T1 sequence (Q6W5P4 1-377 isoform Q6W5P4-4): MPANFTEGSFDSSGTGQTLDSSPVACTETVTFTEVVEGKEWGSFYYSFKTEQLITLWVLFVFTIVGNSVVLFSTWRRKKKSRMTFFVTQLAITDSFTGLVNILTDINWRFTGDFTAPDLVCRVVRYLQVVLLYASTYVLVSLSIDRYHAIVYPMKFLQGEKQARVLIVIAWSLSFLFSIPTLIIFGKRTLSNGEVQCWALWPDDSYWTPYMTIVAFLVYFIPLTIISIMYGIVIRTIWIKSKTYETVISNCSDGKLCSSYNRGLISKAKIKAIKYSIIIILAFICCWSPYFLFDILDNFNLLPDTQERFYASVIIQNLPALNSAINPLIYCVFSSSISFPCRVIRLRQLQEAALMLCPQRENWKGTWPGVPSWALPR
Source text: HEK 293 cells were stably transfected with a reporter gene containing 6 copies of a cAMP response element (CRE; sequence […]) in front of a luciferase reporter gene (Promega) cloned into pcDNA3.1 neo. One stable clone showing robust induction of reporter gene expression after forskolin challenge was chosen for further experiments. The different NPSR isoform cDNAs (cloned into pcDNA3.1 hygro) were transfected into these cells using lipofectamine and stable clones were selected. The same cells and procedures were also used for transient transfection. For induction of reporter gene expression cells were plated in 96-well plates and incubated with agonist for 5 hours in serum-free medium, followed by aspiration of the medium and cell lysis with 25 mM Tris-phosphate, pH 7.8, 2 mM dithiothreitol, 2 mM 1,2-diaminocyclohexane-N,N,N′,N′,-tetraacetic acid, 10% glycerol, 1% Triton X-100. After one freeze-thaw cycle aliquots of supernatant were transferred to white clear-bottom 96-well plates (Greiner) and luciferase content was quantified by bioluminescence (Luc-Screen, Applied Biosystems). Plates were counted in a scintillation counter using bioluminescence settings (MicroBeta, Wallac-Perkin Elmer).

C57Bl/6 mice [2] = test: Locomotor activity after i.c.v. administration in naive and habituated mice; type: in vivo; conditions: for locomotor activity: naive and habituated mice, 60 min observation
Protocol: In view of the NPSR sites of expression and the prominent expression of the NPS precursor in LC area, we hypothesized that NPS may be involved in arousal and anxiety. To start this investigation, we tested the effects of NPS on locomotor activity in both naive and habituated mice (FIG. 7A).
as §1, §2

NPSR Ile^107 = biological target: T2, NPSR Ile^107 (Homo sapiens, UniProt Q6W5P4, N107I); test: Intracellular Ca2+ mobilization (FLIPR) in HEK 293 cells stably expressing NPSR Ile107; type: cell-based; conditions: Ca2+ mobilization, cAMP formation or MAPK phosphorylation
T2 construct: The Ile^107 isoform of NPSR was generated by PCR using synthetic oligonucleotides and the Quik Change Site-Directed Mutagenesis kit from Stratagene; expressed in transfected cells
T2 sequence (Q6W5P4 1-371 N107I): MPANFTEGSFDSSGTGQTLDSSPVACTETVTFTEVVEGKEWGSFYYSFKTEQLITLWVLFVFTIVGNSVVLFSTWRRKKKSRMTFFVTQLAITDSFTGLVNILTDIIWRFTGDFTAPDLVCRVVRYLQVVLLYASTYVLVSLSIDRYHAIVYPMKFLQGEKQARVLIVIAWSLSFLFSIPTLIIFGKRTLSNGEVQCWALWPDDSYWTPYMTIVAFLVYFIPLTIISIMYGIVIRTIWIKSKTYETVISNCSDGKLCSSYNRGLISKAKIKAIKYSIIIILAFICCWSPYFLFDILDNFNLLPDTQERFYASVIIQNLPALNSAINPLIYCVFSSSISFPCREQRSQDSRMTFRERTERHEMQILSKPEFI
Protocol: Changes of agonist-induced intracellular Ca^2+ were measured using the FLIPR technology as described before (5, 6). NPS and truncated NPS peptides were a gift from Phoenix Pharmaceuticals (Belmont, Calif.). Dose-response curves were calculated using GraphPad Prism (Graph Pad, San Diego). Mean EC50 values of populations of stable clones expressing either wildtype or mutant NPSR were compared using unpaired t-test and p<0.05 was considered significant.
Two cells lines expressing similar levels (measured by radioligand binding; see below) of either NPSR WT or NPSR Ile were chosen for detailed analyses of pharmacological parameters. […] In order to investigate whether this tenfold increase in agonist potency at NPSR lie was a general property of the receptor protein we compared a large number of stable clones expressing either NPSR WT or NPSR Ile^107 by establishing dose-response curves for each construct and calculating mean EC50 values for the populations.

efficacy at NPSR Ile107 as compared to the wildtype receptor (NPSR Ile^107): ten-fold
Substance: NPS: neuropeptide S, endogenous NPSR ligand; species of the peptide not stated at the place of the result (SFRNGVGTGMKKTSFQRAKS)
percentage of entries in the light area (C57Bl/6 mice [1]; 0.03-3 nmole i.c.v.): higher percentage | time in the light area (C57Bl/6 mice [1]; 0.03-3 nmole i.c.v.): prolonged time | number of transitions between the two compartments (C57Bl/6 mice [1]; 0.1-3 nmole i.c.v.): significantly increased | latency until first exit from the dark compartment (C57Bl/6 mice [1]; 0.3-3 nmole i.c.v.): significantly reduced | EC50 (NPSR C-alt): 146 ± 15.1 nM | locomotor activity (C57Bl/6 mice [2]; 0.1 nmole i.c.v.): significant increase | locomotor activity (C57Bl/6 mice [2]; 1 nmole i.c.v.): significant increase | total distance traveled, percentage of time moving, number of rearing events and center entries (C57Bl/6 mice [2]; 0.1 and 1 nmole i.c.v., mice): significantly increased
